What was measured:
Assay type in all cases: binding
panel of 442 kinases [1] = biological target: T1, panel of 442 kinases (Homo sapiens, UniProt Q05655); conditions: Compound Concentration 10 µM
T1 construct: purchased KINOMEscan
From the text: (§1) We assessed the selectivity of members of this scaffold using the KINOMEscan methodology across a near comprehensive panel of 442 kinases [[18,27]].

panel of 442 kinases [2] = biological target: T2, panel of 442 kinases (Homo sapiens, UniProt Q15569); conditions: kinase TESK1; compound concentration 10 µM
T2 construct: purchased KINOMEscan
From the text: as §1

panel of 442 kinases [3] = biological target: T3, panel of 442 kinases (Homo sapiens, UniProt Q9BUB5); conditions: Compound Concentration 10 µM
T3 construct: purchased KINOMEscan
From the text: as §1

panel of 442 kinases [4] = biological target: T4, panel of 442 kinases (Homo sapiens, UniProt Q9H0K1); conditions: kinase SIK2; compound concentration 10 µM
T4 construct: purchased KINOMEscan
From the text: as §1

T4 sequence (Q9H0K1 whole entry): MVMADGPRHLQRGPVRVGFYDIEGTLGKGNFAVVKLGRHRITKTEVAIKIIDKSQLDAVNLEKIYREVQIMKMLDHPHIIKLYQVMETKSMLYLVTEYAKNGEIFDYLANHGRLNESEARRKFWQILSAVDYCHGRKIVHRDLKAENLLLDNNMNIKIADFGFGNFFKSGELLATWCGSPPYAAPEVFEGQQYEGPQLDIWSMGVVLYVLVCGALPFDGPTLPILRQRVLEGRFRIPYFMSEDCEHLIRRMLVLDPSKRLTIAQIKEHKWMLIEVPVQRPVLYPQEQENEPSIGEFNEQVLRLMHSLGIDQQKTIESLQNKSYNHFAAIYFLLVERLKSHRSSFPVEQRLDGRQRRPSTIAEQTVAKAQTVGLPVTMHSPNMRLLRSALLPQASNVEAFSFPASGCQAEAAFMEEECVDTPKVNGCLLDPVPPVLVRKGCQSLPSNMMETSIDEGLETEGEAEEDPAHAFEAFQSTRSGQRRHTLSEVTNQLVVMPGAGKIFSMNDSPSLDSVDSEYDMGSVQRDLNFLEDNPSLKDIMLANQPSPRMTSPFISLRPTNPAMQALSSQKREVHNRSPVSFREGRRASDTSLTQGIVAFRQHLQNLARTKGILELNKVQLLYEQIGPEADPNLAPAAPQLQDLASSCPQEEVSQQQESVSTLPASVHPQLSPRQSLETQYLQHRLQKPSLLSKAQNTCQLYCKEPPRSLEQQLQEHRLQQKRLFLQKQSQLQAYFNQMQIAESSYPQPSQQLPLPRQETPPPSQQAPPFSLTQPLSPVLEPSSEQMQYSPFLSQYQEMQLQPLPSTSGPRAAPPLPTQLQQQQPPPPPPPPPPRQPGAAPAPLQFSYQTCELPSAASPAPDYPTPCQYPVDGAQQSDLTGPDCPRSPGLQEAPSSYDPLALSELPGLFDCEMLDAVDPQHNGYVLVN
T1 sequence (Q05655 whole entry): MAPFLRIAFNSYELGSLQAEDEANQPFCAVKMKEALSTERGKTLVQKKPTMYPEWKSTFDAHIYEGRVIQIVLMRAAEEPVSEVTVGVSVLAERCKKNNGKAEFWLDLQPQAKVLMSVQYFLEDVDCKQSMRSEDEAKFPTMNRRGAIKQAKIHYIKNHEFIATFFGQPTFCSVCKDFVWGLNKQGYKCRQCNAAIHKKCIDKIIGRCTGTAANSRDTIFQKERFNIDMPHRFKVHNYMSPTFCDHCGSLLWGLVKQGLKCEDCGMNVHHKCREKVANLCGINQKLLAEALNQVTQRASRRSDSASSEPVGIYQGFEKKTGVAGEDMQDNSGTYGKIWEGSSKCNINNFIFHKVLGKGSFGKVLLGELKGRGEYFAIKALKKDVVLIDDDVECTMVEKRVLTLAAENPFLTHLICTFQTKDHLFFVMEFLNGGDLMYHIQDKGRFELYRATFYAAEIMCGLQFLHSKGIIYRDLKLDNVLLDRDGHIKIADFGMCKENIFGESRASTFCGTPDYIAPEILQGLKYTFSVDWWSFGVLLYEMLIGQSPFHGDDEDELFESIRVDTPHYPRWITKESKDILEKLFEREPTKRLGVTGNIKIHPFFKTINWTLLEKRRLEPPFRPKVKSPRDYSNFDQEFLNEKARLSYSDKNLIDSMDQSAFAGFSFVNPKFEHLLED
T3 sequence (Q9BUB5 whole entry): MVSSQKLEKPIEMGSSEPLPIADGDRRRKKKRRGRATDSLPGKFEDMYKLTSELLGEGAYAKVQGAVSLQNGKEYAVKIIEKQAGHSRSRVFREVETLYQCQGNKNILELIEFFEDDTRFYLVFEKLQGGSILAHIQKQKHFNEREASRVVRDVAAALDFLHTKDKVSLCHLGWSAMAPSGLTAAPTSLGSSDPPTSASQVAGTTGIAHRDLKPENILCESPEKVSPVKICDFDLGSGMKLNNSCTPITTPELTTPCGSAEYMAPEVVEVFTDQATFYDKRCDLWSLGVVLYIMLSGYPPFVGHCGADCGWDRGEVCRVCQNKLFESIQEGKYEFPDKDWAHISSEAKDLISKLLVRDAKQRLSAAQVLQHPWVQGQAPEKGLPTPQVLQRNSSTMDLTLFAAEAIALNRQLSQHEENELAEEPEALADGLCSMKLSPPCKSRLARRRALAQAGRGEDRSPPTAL
T2 sequence (Q15569 whole entry): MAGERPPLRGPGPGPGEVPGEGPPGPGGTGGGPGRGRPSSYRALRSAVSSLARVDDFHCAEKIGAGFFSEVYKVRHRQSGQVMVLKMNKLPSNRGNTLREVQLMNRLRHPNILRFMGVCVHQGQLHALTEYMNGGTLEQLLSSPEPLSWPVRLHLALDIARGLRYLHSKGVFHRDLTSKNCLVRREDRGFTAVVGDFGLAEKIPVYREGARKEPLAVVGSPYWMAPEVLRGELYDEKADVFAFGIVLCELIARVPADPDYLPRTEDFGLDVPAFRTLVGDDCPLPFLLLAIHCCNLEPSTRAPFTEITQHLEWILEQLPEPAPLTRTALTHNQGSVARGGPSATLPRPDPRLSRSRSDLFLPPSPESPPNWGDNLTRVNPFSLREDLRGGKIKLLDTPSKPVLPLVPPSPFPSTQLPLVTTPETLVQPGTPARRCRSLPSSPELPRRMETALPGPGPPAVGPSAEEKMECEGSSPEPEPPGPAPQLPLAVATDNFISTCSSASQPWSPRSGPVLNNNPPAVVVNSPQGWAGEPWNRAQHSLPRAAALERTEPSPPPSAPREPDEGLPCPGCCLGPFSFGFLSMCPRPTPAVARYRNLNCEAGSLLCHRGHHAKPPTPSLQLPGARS

SMILES | KINOMEscan: PRKCD (panel of 442 kinases [1]) | % Ctrl, TESK1 (panel of 442 kinases [2]) | KINOMEscan: MKNK1 (panel of 442 kinases [3]) | % Ctrl, SIK2 (panel of 442 kinases [4])
COc1cc(C(=O)N2CCC(N3CCN(C)CC3)CC2)ccc1Nc1ncc2c(n1)N(C)c1ccccc1C(=O)N2C [15 (LRRK2-IN-1)] | 75 | 82 % Ctrl | 50 | 98 % Ctrl
CCOc1cc(C(=O)N2CCC(N3CCN(C)CC3)CC2)ccc1Nc1ncc2c(n1)N(C1CCCC1)c1ccccc1C(=O)N2C [Compound 26] | 100 | 100 % Ctrl | 96 | 100 % Ctrl
COc1cc(C(=O)N2CCC(N3CCN(C)CC3)CC2)ccc1Nc1ncc2c(n1)N1CCc3cccc(c31)C(=O)N2C [Compound 24] | 67 | 84 % Ctrl | – | 81 % Ctrl
COc1cc(C(=O)N2CCC(N3CCN(C)CC3)CC2)ccc1Nc1ncc2c(n1)N(C1CCCC1)c1ccccc1C(=O)N2C [Compound 25, 11-cyclopentyl-2-((2-methoxy-4-(4-(4-methylpiperazin-1-yl)piperidine-1-carbonyl)phenyl)amino)-5-methyl-5H-benzo[e]pyrimido[5,4-b][1,4]diazepin-6(11H)-one] | 100 | 100 % Ctrl | 100 | 95 % Ctrl
